The text below walks through data of PMC12120625, “Cytotoxicity and Nanoassembly Characteristics of Aromatic Amides of Oleanolic Acid and Ursolic Acid” (ACS Omega, 2025).

Each structure is given as a SMILES string.

In series [1] the test system is G-361. The series can be described thus: Cytotoxicity assay, resazurin, 72 h, G-361. To be noted: Homo sapiens, malignant melanoma. The class given is cell-based. As for the experimental part:
(§1) The cytotoxicity screening tests were made with T-lymphoblastic leukemia (CCRF-CEM), breast adenocarcinoma (MCF7), cervical carcinoma (HeLa), and malignant melanoma (G-361) cancer cell lines (the European Collection of Authenticated Cell Cultures, Salisbury, U.K.). Human foreskin fibroblasts (BJ) were used as reference cells, and they were obtained from the American Type Culture Collection (ATCC, Manassas, Virginia). The cells were cultured in DMEM (Dulbecco’s modified Eagle’s medium) or RPMI 1640 (CCRF-CEM). Media used were supplemented with 10% fetal serum, L-glutamine (2 mM), and 1% penicillin–streptomycin mixture (all from Sigma-Aldrich). The cell lines were maintained under standard cell culture conditions at 37 °C and 5% CO2 in a humid environment. Cells were subcultured two or three times a week using the standard trypsinization procedure.
(§2) The cytotoxicity assays were performed according to the standard experimental procedure published earlier. The cell viability was measured after 72 h using resazurin (Sigma-Aldrich). Western blotting and caspase activity assay were performed as described earlier. ,

Series [2] has as its system CCRF-CEM. As to the kind of experiment: Cytotoxicity assay, resazurin, 72 h, CCRF-CEM. Conditions: Homo sapiens, T-lymphoblastic leukemia. The class given is cell-based. Here is the method:
as §1, §2

The subject of series [3] is HeLa. As to the kind of experiment: Cytotoxicity assay, resazurin, 72 h, HeLa. The class given is cell-based. Conditions: Homo sapiens, cervical cancer. As for the experimental part:
as §1, §2

The nature of series [4]: Cytotoxicity assay, resazurin, 72 h, normal fibroblasts BJ. It counts as cell-based. Conditions: human, BJ normal foreskin fibroblasts, normal foreskin fibroblast. Here is the method: as §1, §2
The test system of series [5] is MCF7. As to the kind of experiment: Cytotoxicity assay, resazurin, 72 h, MCF7. It counts as cell-based. Conditions: Homo sapiens, breast adenocarcinoma. As for the experimental part:
as §1, §2

Series [6] can be described thus: Nanoassembly by UV spectroscopy and TEM in methanol and water. It counts as physicochemical. To be noted: UV spectra and TEM. Here is the method: UV spectra were measured on a Specord 210 spectrometer (Jena Analytical, Germany) in the wavelength range of 200–400 nm. The stock solutions of the studied compounds (9b, 13b, 16b, or 17b; 0.003 mmol) were prepared in methanol (2 mL) at a concentration of 1 mg·mL^–1. A series of water/methanol mixtures were then prepared starting from a water/methanol ratio of 0/100 up to 100/0 in 20% steps. The stock solutions of the studied compounds (0.15 mL) were added separately to each vial containing water/methanol mixtures (3 mL), and the UV spectra were recorded in the wavelength range of 200–400 nm. Aliquots of the stock solutions of the studied compounds (160 μL) were used to prepare samples in the given ratios of water/methanol (0:100 to 100:0 in the 20% steps) mixtures. The UV spectra were recorded in the time 0, 1, 2, 3, and 4 h, followed by a subsequent recording after each 24 h during 7 days (Supporting Information, Figure S33). Note: All target compounds were subjected to this type of investigation; however, self-assembly characteristics were detected by measuring the UV spectra only with 9b, 13b, 16b, and 17b.
Transmission electron microscopy (TEM) was performed with a Tecai G2 Spirit Twin 12 microscope (FEI, Brno, Czech Republic). The samples for TEM were prepared by the fast-drying method, both in methanol and in water. , The studied compounds (2 μL of each one) were dissolved in methanol, and if studies should have been made in water, the compounds were first dissolved in methanol, and then water was added to make the final methanol/water (1:10) solutions. The solutions of compounds in either solvent were made to get the final concentrations of c = 10 mg·mL^–1. Then the solutions were dropped onto a standard carbon-coated copper TEM grid (300 mesh). After 2 min, the rest of the solution was removed by touching the bottom of the grid with a thin strip of filter paper. This fast removal of the solvent, also referred to as “fast-drying” above, is necessary to minimize drying artifacts, as documented in previous studies. , The fast-dried specimens were left to dry completely at an ambient temperature. […] The morphology of selected samples was verified by additional TEM experiments, which employed the samples that were negatively stained with uranyl acetate (UO2Ac2). The negative staining was performed as follows: A small volume (2 μL) of UO2Ac2 (2 wt % of aqueous solution) was dropped on the selected dried specimens from the previous step (i.e., on the dried specimens on the carbon-coated TEM grids). After 1 min, the excess of UO2Ac2 solution was removed (by touching the bottom of the grid with filter paper, like in the previous step). […]

The nature of series [7]: Solubility in methanol and water. The class given is physicochemical.

`CC1(C)CC[C@]2(C(=O)O)CC[C@]3(C)C(=CC[C@@H]4[C@@]5(C)CC[C@H](O)C(C)(C)[C@@H]5CC[C@]43C)[C@@H]2C1` [Compound 1a, (3β)-3-hydroxyolean-12-en-28-oic-acid, reference compound]: the IC50 in series [1], in series [2], in series [3] and in series [5] was more than 50 µM in each case. The compound also showed an IC50 at 72 h in series [4] of more than 50 µM.

On to `C[C@H]1[C@H](C)CC[C@]2(C(=O)O)CC[C@]3(C)C(=CC[C@@H]4[C@@]5(C)CC[C@H](O)C(C)(C)[C@@H]5CC[C@]43C)[C@H]12` [Compound 1b, (3β)-3-hydroxy-urs-12-en-28-oic-acid, reference compound], for which the IC50 in series [1] was 9.7 ± 0.3 µM; in series [2], 13.2 ± 2.7 µM; in series [3] it was 12.6 ± 2.7 µM; in series [5], 16.2 ± 0.5 µM. The compound further returned a 50% inhibitory concentration (IC50) at 72 h in series [4] of 15.6 ± 0.6 µM.

As to `CC(=O)O[C@H]1CC[C@]2(C)[C@H]3CC=C4[C@@H]5CC(C)(C)CC[C@]5(C(=O)NCC(=O)O)CC[C@@]4(C)[C@]3(C)CC[C@H]2C1(C)C` [Compound 3a], the IC50 in series [1] came to 43.1 ± 1.1 µM; in series [2], 41 ± 5.9 µM; in series [3] it was 35.8 ± 3.4 µM; in series [5] it was 46.9 ± 4.4 µM. The IC50 at 72 h in series [4] is more than 50 µM.

Take `CC(=O)O[C@H]1CC[C@]2(C)[C@H]3CC=C4[C@@H]5[C@@H](C)[C@H](C)CC[C@]5(C(=O)NCC(=O)O)CC[C@@]4(C)[C@]3(C)CC[C@H]2C1(C)C` [Compound 3b]: the concentration for half-maximal inhibition (IC50) is 38.7 ± 4.9 µM in series [1], 43.3 ± 5.4 µM in series [2] and 49.7 ± 0.5 µM in series [5]. In addition, the IC50 at 72 h in series [4] is more than 50 µM.

Take `CC(=O)O[C@H]1CC[C@]2(C)[C@H]3CC=C4[C@@H]5CC(C)(C)CC[C@]5(C(=O)NCC(=O)Nc5cc6cccnc6c6ncccc56)CC[C@@]4(C)[C@]3(C)CC[C@H]2C1(C)C` [Compound 4a]: the IC50 in series [1] was 0.4 µM; in series [2], 0.6 ± 0.1 µM; in series [3], 0.3 µM; in series [5], 0.7 ± 0.1 µM. In series [4], this compound had an IC50 at 72 h of 0.8 ± 0.1 µM.

On to `CC(=O)O[C@H]1CC[C@]2(C)[C@H]3CC=C4[C@@H]5[C@@H](C)[C@H](C)CC[C@]5(C(=O)NCC(=O)Nc5cc6cccnc6c6ncccc56)CC[C@@]4(C)[C@]3(C)CC[C@H]2C1(C)C` [Compound 4b], for which the IC50 is 0.5 ± 0.1 µM in series [1], 0.6 ± 0.2 µM in series [2], 0.4 ± 0.1 µM in series [3] and 0.9 ± 0.3 µM in series [5]. In series [4], this compound showed a concentration for half-maximal inhibition (IC50) at 72 h of 1.5 ± 0.5 µM.

Take `CC1(C)CC[C@]2(C(=O)NCC(=O)Nc3cc4cccnc4c4ncccc34)CC[C@]3(C)C(=CC[C@@H]4[C@@]5(C)CC[C@H](O)C(C)(C)[C@@H]5CC[C@]43C)[C@@H]2C1` [Compound 5a]: the IC50 in series [1] is 0.5 ± 0.1 µM; in series [2], 0.3 ± 0.1 µM; in series [3], 0.6 ± 0.2 µM; in series [5], 0.4 ± 0.1 µM. Besides, the IC50 at 72 h in series [4] was 1.5 ± 0.1 µM.

On to `C[C@H]1[C@H](C)CC[C@]2(C(=O)NCC(=O)Nc3cc4cccnc4c4ncccc34)CC[C@]3(C)C(=CC[C@@H]4[C@@]5(C)CC[C@H](O)C(C)(C)[C@@H]5CC[C@]43C)[C@H]12` [Compound 5b], for which the IC50 in series [1] worked out at 0.5 ± 0.1 µM; in series [2], 0.6 ± 0.1 µM; in series [3], 0.6 ± 0.1 µM; in series [5], 0.5 µM. For the same compound, in series [4], the IC50 at 72 h is 1.6 ± 0.1 µM.

Regarding `CC(=O)O[C@H]1CC[C@]2(C)[C@H]3CC=C4[C@@H]5CC(C)(C)CC[C@]5(C(=O)NCC(=O)Nc5ccc(N)cc5)CC[C@@]4(C)[C@]3(C)CC[C@H]2C1(C)C` [Compound 7a], the IC50 is 8.5 ± 0.1 µM in series [1], 17.1 ± 1.9 µM in series [2], 10.9 ± 1.9 µM in series [3] and 12 ± 2.5 µM in series [5]. For the same compound, in series [4], the IC50 at 72 h worked out at 18.5 ± 2.6 µM.

Take `CC(=O)O[C@H]1CC[C@]2(C)[C@H]3CC=C4[C@@H]5[C@@H](C)[C@H](C)CC[C@]5(C(=O)NCC(=O)Nc5ccc(N)cc5)CC[C@@]4(C)[C@]3(C)CC[C@H]2C1(C)C` [Compound 7b]: the IC50 in series [1] worked out at 11.2 ± 0.4 µM; in series [2], 18.1 ± 0.4 µM; in series [3], 12.5 ± 2.3 µM; in series [5], 14.9 ± 2.2 µM. Moreover, the midpoint of inhibition in series [4], the IC50 at 72 h, lay at 36.1 ± 4.5 µM.

Regarding `CC1(C)CC[C@]2(C(=O)NCC(=O)Nc3ccc(N)cc3)CC[C@]3(C)C(=CC[C@@H]4[C@@]5(C)CC[C@H](O)C(C)(C)[C@@H]5CC[C@]43C)[C@@H]2C1` [Compound 9a], the half-maximal inhibitory concentration (IC50) was found to be 18.6 ± 2.3 µM in series [1], 31.7 ± 2.3 µM in series [2], 28.7 ± 1.8 µM in series [3] and 17 ± 2.1 µM in series [5]. Further, in series [6], the nanoassembly entry is on record as “showed no nanoassembly”. Moreover, the IC50 at 72 h in series [4] came out at 37.9 ± 6.1 µM.

As to `C[C@H]1[C@H](C)CC[C@]2(C(=O)NCC(=O)Nc3ccc(N)cc3)CC[C@]3(C)C(=CC[C@@H]4[C@@]5(C)CC[C@H](O)C(C)(C)[C@@H]5CC[C@]43C)[C@H]12` [Compound 9b], the IC50 in series [1] worked out at 23.3 ± 1 µM; in series [2], 25.8 ± 0.4 µM; in series [3] it was 30 ± 2.8 µM; in series [5], 16.4 ± 3.7 µM. The nanoassembly result in series [6] was “displayed nanoassembly in methanol and water”. In addition, the solubility entry in series [7] was “soluble both in methanol and in water”. Moreover, the IC50 at 72 h in series [4] was determined as 35.2 ± 1.3 µM.

`CC(=O)O[C@H]1CC[C@]2(C)[C@H]3CC=C4[C@@H]5CC(C)(C)CC[C@]5(C(=O)NCC(=O)Nc5cccc(N)c5)CC[C@@]4(C)[C@]3(C)CC[C@H]2C1(C)C` [Compound 11a]: the IC50 was 38.6 ± 1.3 µM in series [1], more than 50 µM in series [2], 41.9 ± 4.7 µM in series [3] and 39.5 ± 1.5 µM in series [5]. Also, the IC50 at 72 h in series [4] was more than 50 µM.

Take `CC(=O)O[C@H]1CC[C@]2(C)[C@H]3CC=C4[C@@H]5[C@@H](C)[C@H](C)CC[C@]5(C(=O)NCC(=O)Nc5cccc(N)c5)CC[C@@]4(C)[C@]3(C)CC[C@H]2C1(C)C` [Compound 11b]: the IC50 in series [1] worked out at 15 ± 0.8 µM; in series [2] it was 32.6 ± 8.7 µM; in series [3], 14.6 ± 2.7 µM; in series [5] it was 15.8 ± 3.2 µM. Further, in series [4], the IC50 at 72 h amounted to 44.8 ± 0.6 µM.

For `CC1(C)CC[C@]2(C(=O)NCC(=O)Nc3cccc(N)c3)CC[C@]3(C)C(=CC[C@@H]4[C@@]5(C)CC[C@H](O)C(C)(C)[C@@H]5CC[C@]43C)[C@@H]2C1` [Compound 13a], the IC50 in series [1] came out at 19.5 ± 2.1 µM; in series [2], 29.4 ± 4.4 µM; in series [3] it was 19.9 ± 1 µM; in series [5], 14.2 ± 1.3 µM. The nanoassembly result in series [6] is “showed no nanoassembly”. The compound also returned an IC50 at 72 h in series [4] of 45.7 ± 2.2 µM.

Regarding `C[C@H]1[C@H](C)CC[C@]2(C(=O)NCC(=O)Nc3cccc(N)c3)CC[C@]3(C)C(=CC[C@@H]4[C@@]5(C)CC[C@H](O)C(C)(C)[C@@H]5CC[C@]43C)[C@H]12` [Compound 13b], the IC50 worked out at 14.4 ± 2.9 µM in series [1], 22.3 ± 2.3 µM in series [2], 26.7 ± 2.7 µM in series [3] and 12.8 ± 2.5 µM in series [5]. The nanoassembly entry in series [6] is “displayed nanoassembly in methanol and water”. The solubility entry in series [7] was “soluble both in methanol and in water”. This compound also came in with a half-maximal inhibitory concentration (IC50) at 72 h in series [4] of 38.5 ± 0.8 µM.
